≈ marks a conversion by molar mass, not a printed value. Where “and” joins values, the source holds several entries; their conditions need not be identical. Equal entries are not always repeated. Where two headings read alike, the source gives them in different places.
Assays:
Assay in all cases: in vitro antibacterial MIC, agar plate dilution
Type in all cases: cell-based
[1] = system: Serratia marcescens VGH 84-30; conditions: Serratia marcescens, VGH8430, 18 h, 35° C., read-out: MIC
How it was run: (§1)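 MIC, mcg/ml: lowest concentration with no visible growth after 18 h incubation at 35° C. Mueller-Hinton agar dilution plates; ~10^4 CFU inoculum via Steers replicating device.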

[2] = system: Streptococcus faecalis VGH 84-65; conditions: 35° C.
How it was run: as §1

[3] = system: Streptococcus faecalis UCI 85-30; conditions: 35° C.
How it was run: as §1

[4] = system: Streptococcus faecalis CMC 83-120; conditions: 35° C.
How it was run: as §1

[5] = system: Pseudomonas aeruginosa K 84-16; conditions: 35° C.
How it was run: as §1

[6] = system: Escherichia coli LL 311; conditions: Escherichia coli, LL311, 18 h, 35° C., read-out: MIC
How it was run: as §1

[7] = system: Enterobacter cloacae MOR 84-30; conditions: 35° C.
How it was run: as §1

[8] = system: Escherichia coli CMC 84-50; conditions: 35° C.
How it was run: as §1

[9] = system: Pseudomonas aeruginosa CMC 83-20; conditions: 35° C.
How it was run: as §1

[10] = system: Morganella morganii CMC 84-38; conditions: 35° C.
How it was run: as §1

[11] = system: Klebsiella pneumoniae IO 83-5; conditions: 35° C.
How it was run: as §1

[12] = system: Morganella morganii CMC 84-37; conditions: 35° C.
How it was run: as §1

[13] = system: Staphylococcus aureus VGH 84-47; conditions: 35° C.
How it was run: as §1

[14] = system: Escherichia coli VGH 84-19; conditions: 35° C.
How it was run: as §1

[15] = system: Streptococcus faecalis UCI 85-19; conditions: 35° C.
How it was run: as §1

[16] = system: Escherichia coli ATCC 25922; conditions: 18 hours, 35° C.
How it was run: as §1

[17] = system: Providencia stuarti CMC 83-3; conditions: 35° C.
How it was run: as §1

[18] = system: Morganella morganii VHG 84-12; conditions: Morganella morganii VHG 84-12 (VGH 84-12 for Example 131), 35° C.
How it was run: as §1

[19] = system: Escherichia coli CMC 84-11; conditions: Escherichia coli, CMC8411, 18 h, 35° C., read-out: MIC
How it was run: as §1

[20] = system: Staphylococcus aureus VGH 84-45; conditions: 35° C.
How it was run: as §1

[21] = system: Klebsiella pneumoniae CMC 84-31; conditions: 35° C.
How it was run: as §1

[22] = system: Escherichia coli MOR 84-20; conditions: 35° C.
How it was run: as §1

[23] = system: Staphylococcus aureus K 82-26; conditions: 35° C.
How it was run: as §1

[24] = system: Pseudomonas aeruginosa VGH 84-3; conditions: 35° C.
How it was run: as §1

[25] = system: Enterobacter cloacae K 84-10; conditions: 35° C.
How it was run: as §1

[26] = system: Serratia marcescens K 84-18; conditions: 35° C.
How it was run: as §1

[27] = system: Klebsiella pneumoniae MOR 84-24; conditions: 35° C.
How it was run: as §1

[28] = system: Morganella morganii MOR 84-45; conditions: 35° C.
How it was run: as §1

[29] = system: Proteus rettgeri IO 83-21; conditions: 35° C.
How it was run: as §1

[30] = system: Pseudomonas aeruginosa LL-1244; conditions: 35° C.
How it was run: as §1

[31] = system: Proteus rettgeri CMC 84-41; conditions: Providencia rettgeri, CMC8441, 18 h, 35° C., read-out: MIC
How it was run: as §1

[32] = system: Streptococcus faecalis VGH 84-69; conditions: 35° C.
How it was run: as §1

[33] = system: Serratia marcescens CMC 83-74; conditions: 35° C.
How it was run: as §1

[34] = system: Enterobacter cloacae VGH 84-39; conditions: 35° C.
How it was run: as §1

[35] = system: Pseudomonas aeruginosa VGH 84-4; conditions: 35° C.
How it was run: as §1

[36] = system: Staphylococcus aureus Smith; conditions: 35° C.
How it was run: as §1

[37] = system: Staphylococcus aureus CMC 83-131; conditions: 35° C.
How it was run: as §1

[38] = system: Citrobacter div. K 82-24; conditions: 35° C.
How it was run: as §1

[39] = system: Serratia marcescens MOR 84-41; conditions: 35° C.
How it was run: as §1

Molecule `O=C(O)c1cn(C2CC2)c2cc(N3CCNC(C4CC4)C3)c(F)cc2c1=O` (centres unmarked) [Example 124, 1-Cyclopropyl-7-(3-cvclopropyl-1-piperazinyl)-6-fluoro-1,4-dihydro-4-oxo-3-quinolinecarboxvlic acid,] has an MIC [1] of 2 µg/mL (≈ 5.38 µM), an MIC ([2]; 18 hours) of 1 µg/mL (≈ 2.69 µM) and an MIC ([3]; 18 hours) of 2 µg/mL (≈ 5.38 µM). The MIC ([4]; 18 hours) was 1 µg/mL (≈ 2.69 µM), the MIC ([5]; 18 hours) was 4 µg/mL (≈ 10.8 µM) and the MIC [6] was 0.03 µg/mL (≈ 0.0808 µM). For the same molecule, the MIC ([7]; 18 hours) was 0.5 µg/mL (≈ 1.35 µM), the MIC ([8]; 18 hours) was 0.03 µg/mL (≈ 0.0808 µM) and the MIC ([9]; 18 hours) was 4 µg/mL (≈ 10.8 µM). For the same molecule, the MIC ([10]; 18 hours) was 0.03 µg/mL (≈ 0.0808 µM), the MIC ([11]; 18 hours) was 0.06 µg/mL (≈ 0.162 µM) and the MIC ([12]; 18 hours) was 0.06 µg/mL (≈ 0.162 µM). The MIC ([13]; 18 hours) was 0.25 µg/mL (≈ 0.673 µM), the MIC ([14]; 18 hours) was 0.015 µg/mL (≈ 0.0404 µM) and the MIC ([15]; 18 hours) was 2 µg/mL (≈ 5.38 µM). The MIC [16] was < 0.015 µg/mL and 0.008 µg/mL, the MIC ([17]; 18 hours) was 4 µg/mL (≈ 10.8 µM) and the MIC ([18]; 18 hours) was 0.12 µg/mL (≈ 0.323 µM). For the same molecule, the MIC [19] was 0.03 µg/mL (≈ 0.0808 µM), the MIC ([20]; 18 hours) was 0.06 µg/mL (≈ 0.162 µM) and the MIC ([21]; 18 hours) was 0.03 µg/mL (≈ 0.0808 µM). The MIC ([22]; 18 hours) was 0.015 µg/mL (≈ 0.0404 µM), the MIC ([23]; 18 hours) was 1 µg/mL (≈ 2.69 µM) and the MIC ([24]; 18 hours) was 8 µg/mL (≈ 21.5 µM). The MIC ([25]; 18 hours) was 0.015 µg/mL (≈ 0.0404 µM), the MIC ([26]; 18 hours) was 0.12 µg/mL (≈ 0.323 µM) and the MIC ([27]; 18 hours) was 0.06 µg/mL (≈ 0.162 µM). For the same molecule, the MIC ([28]; 18 hours) was 0.015 µg/mL (≈ 0.0404 µM), the MIC ([29]; 18 hours) was 0.12 µg/mL (≈ 0.323 µM) and the MIC ([30]; 18 hours) was 4 µg/mL (≈ 10.8 µM). It also gave an MIC [31] of 0.06 µg/mL (≈ 0.162 µM), an MIC ([32]; 18 hours) of 1 µg/mL (≈ 2.69 µM) and an MIC ([33]; 18 hours) of 8 µg/mL (≈ 21.5 µM). It also gave an MIC ([34]; 18 hours) of 0.03 µg/mL (≈ 0.0808 µM), an MIC ([35]; 18 hours) of 2 µg/mL (≈ 5.38 µM) and an MIC ([36]; 18 hours) of 0.06 µg/mL (≈ 0.162 µM). It also gave an MIC ([37]; 18 hours) of 0.5 µg/mL (≈ 1.35 µM), an MIC ([38]; 18 hours) of 0.03 µg/mL (≈ 0.0808 µM) and an MIC ([39]; 18 hours) of 0.12 µg/mL (≈ 0.323 µM).
Molecule `CCn1cc(C(=O)O)c(=O)c2cc(F)c(N3CCNC(c4ccncc4)C3)c(F)c21` (centres unmarked) [Example 127] has an MIC [1] of 32 µg/mL (≈ 77.2 µM), an MIC ([2]; Enterococcus faecalis, VGH8465, 18 h, read-out: MIC) of 2 µg/mL (≈ 4.83 µM) and an MIC ([3]; Enterococcus faecalis, UCI8530, 18 h, read-out: MIC) of 8 µg/mL (≈ 19.3 µM). It also gave an MIC ([4]; Enterococcus faecalis, CMC83120, 18 h, read-out: MIC) of 4 µg/mL (≈ 9.65 µM), an MIC ([5]; Pseudomonas aeruginosa, K8416, 18 h, read-out: MIC) greater than 16 µg/mL and an MIC [6] of 0.5 µg/mL (≈ 1.21 µM). The MIC ([7]; Enterobacter cloacae, MOR8430, 18 h, read-out: MIC) was 8 µg/mL (≈ 19.3 µM), the MIC ([8]; Escherichia coli, CMC8450, 18 h, read-out: MIC) was 2 µg/mL (≈ 4.83 µM) and the MIC ([9]; Pseudomonas aeruginosa, CMC8320, 18 h, read-out: MIC) was greater than 16 µg/mL. For the same molecule, the MIC ([10]; Morganella morganii, CMC8438, 18 h, read-out: MIC) was 2 µg/mL (≈ 4.83 µM), the MIC ([11]; Klebsiella pneumoniae, IO835, 18 h, read-out: MIC) was 4 µg/mL (≈ 9.65 µM) and the MIC ([12]; Morganella morganii, CMC8437, 18 h, read-out: MIC) was 0.5 µg/mL (≈ 1.21 µM). For the same molecule, the MIC ([13]; Staphylococcus aureus, VGH8447, 18 h, read-out: MIC) was 0.25 µg/mL (≈ 0.603 µM), the MIC ([14]; Escherichia coli, VGH8419, 18 h, read-out: MIC) was 1 µg/mL (≈ 2.41 µM) and the MIC ([15]; Enterococcus faecalis, UCI8519, 18 h, read-out: MIC) was 4 µg/mL (≈ 9.65 µM). It also gave an MIC ([17]; Providencia, CMC833, 18 h, read-out: MIC) greater than 16 µg/mL, an MIC ([18]; Morganella morganii, VHG8412, 18 h, read-out: MIC) of 4 µg/mL (≈ 9.65 µM) and an MIC [19] of 0.5 µg/mL (≈ 1.21 µM). For the same molecule, the MIC ([20]; Staphylococcus aureus, VGH8445, 18 h, read-out: MIC) was 0.12 µg/mL (≈ 0.29 µM), the MIC ([21]; Klebsiella pneumoniae, CMC8431, 18 h, read-out: MIC) was 2 µg/mL (≈ 4.83 µM) and the MIC ([22]; Escherichia coli, MOR8420, 18 h, read-out: MIC) was 1 µg/mL (≈ 2.41 µM). For the same molecule, the MIC ([23]; Staphylococcus aureus, K8226, 18 h, read-out: MIC) was 8 µg/mL (≈ 19.3 µM), the MIC ([24]; Pseudomonas aeruginosa, VGH843, 18 h, read-out: MIC) was greater than 16 µg/mL and the MIC ([25]; Enterobacter cloacae, K8410, 18 h, read-out: MIC) was 2 µg/mL (≈ 4.83 µM). The MIC ([26]; Serratia marcescens, K8418, 18 h, read-out: MIC) was 1 µg/mL (≈ 2.41 µM), the MIC ([27]; Klebsiella pneumoniae, MOR8424, 18 h, read-out: MIC) was 4 µg/mL (≈ 9.65 µM) and the MIC ([28]; Morganella morganii, MOR8445, 18 h, read-out: MIC) was 2 µg/mL (≈ 4.83 µM). The MIC ([29]; Providencia rettgeri, IO8321, 18 h, read-out: MIC) was 4 µg/mL (≈ 9.65 µM), the MIC ([30]; Pseudomonas aeruginosa, LL1244, 18 h, read-out: MIC) was 16 µg/mL (≈ 38.6 µM) and the MIC [31] was 1 µg/mL (≈ 2.41 µM). For the same molecule, the MIC ([32]; Enterococcus faecalis, VGH8469, 18 h, read-out: MIC) was 4 µg/mL (≈ 9.65 µM), the MIC ([33]; Serratia marcescens, CMC8374, 18 h, read-out: MIC) was greater than 16 µg/mL and the MIC ([34]; Enterobacter cloacae, VGH8439, 18 h, read-out: MIC) was 2 µg/mL (≈ 4.83 µM). The MIC ([35]; Pseudomonas aeruginosa, VGH844, 18 h, read-out: MIC) was 16 µg/mL (≈ 38.6 µM), the MIC ([36]; Staphylococcus aureus, 18 h, read-out: MIC) was 0.06 µg/mL (≈ 0.145 µM) and the MIC ([37]; Staphylococcus aureus, CMC83131, 18 h, read-out: MIC) was 0.5 µg/mL (≈ 1.21 µM). It also gave an MIC ([38]; Citrobacter, DIV.K8224, 18 h, read-out: MIC) of 2 µg/mL (≈ 4.83 µM) and an MIC ([39]; Serratia marcescens, MOR8441, 18 h, read-out: MIC) of 4 µg/mL (≈ 9.65 µM).
